The results in this text go back to publication PMC8991199, “Promiscuity mapping of the S100 protein family using a high-throughput holdup assay” (Scientific Reports, 2022).

The structures appear in SMILES notation. Entries after “also recorded” stand apart in the source; their conditions may differ. Some results are limits rather than exact numbers.

What all share (type): binding
One assay addresses T1, S100A1 (Homo sapiens, UniProt P23297).
T1 sequence (P23297 1-94): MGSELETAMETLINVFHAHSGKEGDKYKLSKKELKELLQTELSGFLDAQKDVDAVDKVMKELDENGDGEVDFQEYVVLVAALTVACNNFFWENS
In words: direct fluorescence polarization (FP), S100A1. As to conditions: S100A1, 50 nM labeled foldamer, 20 mM HEPES pH 7.5, 150 mM NaCl, 1 mM CaCl2, 0.5 mM TCEP, 0.01% Tween20, quadratic fit, mean ± SEM, three technical repeats, threshold 1 mM. The text has this:
(§1) HTP (and also low-throughput) measurements generally need to be validated by an orthogonal approach to eliminate experimental artifacts. […] In this assay, the association of the fluorescently labeled foldamer and the S100 protein of interest is monitored, through the change in polarization of the emitted light by the fluorophore upon the binding event. In direct FP, the presence of the fluorophore might change the binding affinity of some foldamers. […] Nevertheless, we assumed that the fluorophore would affect all foldamers that target the same binding site to the same degree, because the foldamer scaffold is rigid.
(§2) Briefly, S100 proteins were cloned into a modified pET15b vector with a TEV protease cleavable N-terminal His6-tag and expressed in Escherichia coli BL21 (DE3) cells, followed by Ni^2+-affinity chromatography. For HU assay, S100 proteins were further purified by either hydrophobic interaction chromatography or ion exchange chromatography without the cleavage of the N-terminal His6-tag applying standard conditions. For direct FP measurements, the N-terminal His6-tag was cleaved, and the S100 proteins were purified by hydrophobic interaction chromatography, ion exchange chromatography or size exclusion chromatography. The quality of the recombinant proteins was checked by SDS-PAGE analysis in all cases. The concentration of the recombinant S100 proteins was determined by UV spectrophotometry using the absorbance of Tyr and Trp residues.
(§3) In direct fluorescence polarization assays, S100 proteins were diluted in a buffer containing 50 nM labeled foldamer, 20 mM HEPES pH 7.5, 150 mM NaCl, 1 mM CaCl2, 0.5 mM TCEP and 0.01% Tween20. The dilution series (50 µl) were divided into three technical repeats and transferred (15 µl) to a 384-well microplate. In competitive fluorescence polarization assays, the buffer applied in direct measurements was supplemented with the S100 protein of interest to reach a saturation of 60–80%. This mixture was titrated with the competitor (i.e. the unlabeled peptide). Fluorescence polarization was measured in 8 different S100 concentrations (one of which contained no S100 protein) on a Synergy H4 plate reader using 485 ± 20 nm and 528 ± 20 nm band-pass filters for excitation and emission, respectively. The Kd values were obtained by fitting the data from the FP measurements with the python-based ProFit software using quadratic and competitive binding equation for direct and competitive FP, respectively. The detection threshold was based on two parameters. First, we rejected all fitted dissociation constants above 1 mM.

A further assay deals with T2, S100A5 (Homo sapiens, UniProt P33763).
T2 sequence (P33763 1-92): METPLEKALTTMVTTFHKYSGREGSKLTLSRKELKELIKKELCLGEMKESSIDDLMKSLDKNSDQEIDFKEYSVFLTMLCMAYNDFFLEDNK
In words: direct fluorescence polarization (FP), S100A5. The settings on record: for Kd: direct FP, S100A5, 50 nM labeled foldamer, 20 mM HEPES pH 7.5, 150 mM NaCl, 1 mM CaCl2, 0.5 mM TCEP, 0.01% Tween20, quadratic fit, mean ± SEM, three technical repeats, threshold 1 mM. On the procedure: (§4) HTP (and also low-throughput) measurements generally need to be validated by an orthogonal approach to eliminate experimental artifacts. […] This way, we chose WL, IF, WW, YF, IL, VL, TW, RF, RR, TI, TM, and after resynthesizing with a fluorescent label at the C-terminus (Figs. S15–S26, Table S1), the S100ome was tested against the labeled foldamers by direct fluorescence polarization (FP) (Fig. 3A). In this assay, the association of the fluorescently labeled foldamer and the S100 protein of interest is monitored, through the change in polarization of the emitted light by the fluorophore upon the binding event. In direct FP, the presence of the fluorophore might change the binding affinity of some foldamers. […] Nevertheless, we assumed that the fluorophore would affect all foldamers that target the same binding site to the same degree, because the foldamer scaffold is rigid. Defining the threshold of detection at the dissociation constant of 1 mM, we identified 87 interactions between the selected foldamer fragments and the S100ome out of 220 possible interactions (Table 1, Fig. S4-14).
To ensure that foldamer fragments bind to the hydrophobic binding groove of S100 proteins, which opens upon binding of calcium ions, we performed FP experiments on a selected S100 protein, S100A5, in the presence of EDTA and TRTK12, an S100-binding peptide of 12 amino acids. […] Based on the similarity and redundancy among the S100 family, it can be assumed that all S100 proteins bind the members of the H14 foldamer library through their hydrophobic binding pocket in a Ca^2+-dependent manner.
as §2, §3
A general note: Fluorescence polarisation rises when a labelled molecule tumbles more slowly, as on binding a larger partner.

In another assay the target is T3, S100A8 (Homo sapiens, UniProt P05109).
T3 sequence (P05109 1-93): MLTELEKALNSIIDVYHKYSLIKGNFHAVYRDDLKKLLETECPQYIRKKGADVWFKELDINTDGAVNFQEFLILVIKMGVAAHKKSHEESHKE
Briefly: direct fluorescence polarization (FP), S100A8. The settings on record: S100A8, 50 nM labeled foldamer, 20 mM HEPES pH 7.5, 150 mM NaCl, 1 mM CaCl2, 0.5 mM TCEP, 0.01% Tween20, quadratic fit, mean ± SEM, three technical repeats, threshold 1 mM. How it is done: as §4, §2, §3

In a further assay the target is T4, S100A14 (Homo sapiens, UniProt Q9HCY8).
T4 sequence (Q9HCY8 1-104): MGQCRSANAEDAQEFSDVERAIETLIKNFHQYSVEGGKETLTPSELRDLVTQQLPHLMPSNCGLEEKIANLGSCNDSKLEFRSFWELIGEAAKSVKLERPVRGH
Briefly: direct fluorescence polarization (FP), S100A14. The settings on record: S100A14, 50 nM labeled foldamer, 20 mM HEPES pH 7.5, 150 mM NaCl, 1 mM CaCl2, 0.5 mM TCEP, 0.01% Tween20, quadratic fit, mean ± SEM, three technical repeats, threshold 1 mM. On the procedure: as §4, §2, §3

Another assay deals with S100A2 (Homo sapiens, UniProt P29034). Briefly: direct fluorescence polarization (FP), S100A2. As to conditions: S100A2, 50 nM labeled foldamer, 20 mM HEPES pH 7.5, 150 mM NaCl, 1 mM CaCl2, 0.5 mM TCEP, 0.01% Tween20, quadratic fit, mean ± SEM, three technical repeats, threshold 1 mM.
S100A2, sequence (P29034 whole entry): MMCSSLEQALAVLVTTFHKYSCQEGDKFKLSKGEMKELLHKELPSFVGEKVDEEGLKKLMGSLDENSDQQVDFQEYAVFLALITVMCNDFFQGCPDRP
Source text: as §1, §2, §3

The target of the next assay is T5, S100P (Homo sapiens, UniProt P25815).
T5 sequence (P25815 1-95): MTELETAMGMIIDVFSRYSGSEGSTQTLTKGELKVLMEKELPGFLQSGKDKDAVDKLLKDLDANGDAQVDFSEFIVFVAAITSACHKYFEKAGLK
Briefly: direct fluorescence polarization (FP), S100P. The settings on record: 50 nM labeled foldamer, 20 mM HEPES pH 7.5, 150 mM NaCl, 1 mM CaCl2, 0.5 mM TCEP, 0.01% Tween20, quadratic fit, mean ± SEM, three technical repeats, threshold 1 mM.
Source text: as §1, §2, §3

As a reminder, the Kd is the free concentration of one partner at which half of the binding sites on the other are occupied at equilibrium, for simple one-to-one binding. Regarding `C[C@@H](O)[C@@H](CC(=O)N[C@H]1CCCC[C@@H]1C(=O)N[C@H]1CCCC[C@@H]1C(=O)N[C@H](CC(=O)N[C@H]1CCCC[C@@H]1C(=O)NCC(=O)N[C@@H](CCCCNC(=O)c1ccc2c(c1)C1(OC2=O)c2ccc(O)cc2Oc2cc(O)ccc21)C(N)=O)Cc1c[nH]c2ccccc12)NC(=O)[C@H]1CCCC[C@@H]1N` [fTW], the Kd on S100A1 was 330 ± 20 µM; at S100A5, 62 ± 1.4 µM; at S100A8, 770 ± 180 µM; at S100A14 it was over 1000 µM.

As to `CSCC[C@@H](CC(=O)N[C@H]1CCCC[C@@H]1C(=O)NCC(=O)N[C@@H](CCCCNC(=O)c1ccc2c(c1)C1(OC2=O)c2ccc(O)cc2Oc2cc(O)ccc21)C(N)=O)NC(=O)[C@H]1CCCC[C@@H]1NC(=O)[C@H]1CCCC[C@@H]1NC(=O)C[C@@H](NC(=O)[C@H]1CCCC[C@@H]1N)[C@@H](C)O` [fTM], the Kd was over 1000 µM at S100A1; over 1000 µM at S100A2; 204 ± 9.2 µM on S100A5; over 1000 µM on S100A8; over 1000 µM on S100A14; over 1000 µM on S100P.

Regarding `CC[C@H](C)[C@@H](CC(=O)N[C@H]1CCCC[C@@H]1C(=O)N[C@H]1CCCC[C@@H]1C(=O)N[C@H](CC(=O)N[C@H]1CCCC[C@@H]1C(=O)NCC(=O)N[C@@H](CCCCNC(=O)c1ccc2c(c1)C1(OC2=O)c2ccc(O)cc2Oc2cc(O)ccc21)C(N)=O)Cc1ccccc1)NC(=O)[C@H]1CCCC[C@@H]1N` [fIF], the Kd on S100A1 was 210 ± 13 µM; at S100A2 it was 38 ± 1.5 µM; on S100A5, 27 ± 0.53 µM; on S100A8, 750 ± 46 µM; at S100A14, over 1000 µM; at S100P it was 140 ± 5.8 µM. Moreover, the “binding to S100A5 in the absence of Ca2+” value on S100A5 (Fig. 3C middle panels, direct FP in the presence of EDTA) is “loss of binding event; also recorded: unable to interact”.

In the case of `N=C(N)NCCC[C@@H](CC(=O)N[C@H]1CCCC[C@@H]1C(=O)N[C@H]1CCCC[C@@H]1C(=O)N[C@H](CC(=O)N[C@H]1CCCC[C@@H]1C(=O)NCC(=O)N[C@@H](CCCCNC(=O)c1ccc2c(c1)C1(OC2=O)c2ccc(O)cc2Oc2cc(O)ccc21)C(N)=O)Cc1ccccc1)NC(=O)[C@H]1CCCC[C@@H]1N` [fRF], the Kd was 413 ± 81 µM on S100A1; 340 ± 21 µM at S100A2; 46 ± 1.2 µM on S100A5; over 1000 µM at S100A8; over 1000 µM at S100A14; 190 ± 17 µM at S100P.

In the case of `N=C(N)NCCC[C@@H](CC(=O)N[C@H]1CCCC[C@@H]1C(=O)NCC(=O)N[C@@H](CCCCNC(=O)c1ccc2c(c1)C1(OC2=O)c2ccc(O)cc2Oc2cc(O)ccc21)C(N)=O)NC(=O)[C@H]1CCCC[C@@H]1NC(=O)[C@H]1CCCC[C@@H]1NC(=O)C[C@H](CCCNC(=N)N)NC(=O)[C@H]1CCCC[C@@H]1N` [fRR], the Kd on S100A1 was 280 ± 38 µM; at S100A2 it was 61 ± 5.5 µM; at S100A5 it was 45 ± 0.81 µM; at S100A8, over 1000 µM; on S100A14, over 1000 µM; at S100P, over 1000 µM.

For `NC(=O)[C@H](CCCCNC(=O)c1ccc2c(c1)C1(OC2=O)c2ccc(O)cc2Oc2cc(O)ccc21)NC(=O)CNC(=O)[C@H]1CCCC[C@@H]1NC(=O)C[C@H](Cc1c[nH]c2ccccc12)NC(=O)[C@H]1CCCC[C@@H]1NC(=O)[C@H]1CCCC[C@@H]1NC(=O)C[C@H](Cc1c[nH]c2ccccc12)NC(=O)[C@H]1CCCC[C@@H]1N` [fWW], the Kd at S100A1 is 110 ± 19 µM; at S100A2, 65 ± 1.2 µM; at S100A5 it was 77 ± 2.8 µM; on S100A8, over 1000 µM; on S100A14, over 1000 µM; at S100P, 190 ± 6.9 µM.

As to `CC[C@H](C)[C@@H](CC(=O)N[C@H]1CCCC[C@@H]1C(=O)N[C@H]1CCCC[C@@H]1C(=O)N[C@H](CC(=O)N[C@H]1CCCC[C@@H]1C(=O)NCC(=O)N[C@@H](CCCCNC(=O)c1ccc2c(c1)C1(OC2=O)c2ccc(O)cc2Oc2cc(O)ccc21)C(N)=O)CC(C)C)NC(=O)[C@H]1CCCC[C@@H]1N` [fIL], the Kd at S100A2 is 78 ± 8.7 µM; on S100A5, 75 ± 3.6 µM; on S100A8, over 1000 µM; on S100A14, over 1000 µM; at S100P it was 330 ± 92 µM.
